Assay results from patent US20160362744A1, “Biomarkers of Mineralocorticoid Receptor Activation” (INSERM (Institut National de la Sante et de la Recherche …, priority 2008, published 2016).
Entries after “also recorded” stand apart in the source; their conditions may differ.

Legend:
[1] = target: T1, rat MR (Rattus norvegicus, UniProt P22199); assay: Expression of NGAL mRNA (Q-PCR) in rat cardiomyocyte H9C2 cells stably expressing rat MR; assay type: cell-based; settings: for Lipocalin2/NGAL expression, time-course: 10^−8M aldosterone
T1 construct: expressed in transfected cells; host or cells: rat H9C2 cardiomyocyte cells (H9-C2/MR)
T1 sequence (P22199 1-981): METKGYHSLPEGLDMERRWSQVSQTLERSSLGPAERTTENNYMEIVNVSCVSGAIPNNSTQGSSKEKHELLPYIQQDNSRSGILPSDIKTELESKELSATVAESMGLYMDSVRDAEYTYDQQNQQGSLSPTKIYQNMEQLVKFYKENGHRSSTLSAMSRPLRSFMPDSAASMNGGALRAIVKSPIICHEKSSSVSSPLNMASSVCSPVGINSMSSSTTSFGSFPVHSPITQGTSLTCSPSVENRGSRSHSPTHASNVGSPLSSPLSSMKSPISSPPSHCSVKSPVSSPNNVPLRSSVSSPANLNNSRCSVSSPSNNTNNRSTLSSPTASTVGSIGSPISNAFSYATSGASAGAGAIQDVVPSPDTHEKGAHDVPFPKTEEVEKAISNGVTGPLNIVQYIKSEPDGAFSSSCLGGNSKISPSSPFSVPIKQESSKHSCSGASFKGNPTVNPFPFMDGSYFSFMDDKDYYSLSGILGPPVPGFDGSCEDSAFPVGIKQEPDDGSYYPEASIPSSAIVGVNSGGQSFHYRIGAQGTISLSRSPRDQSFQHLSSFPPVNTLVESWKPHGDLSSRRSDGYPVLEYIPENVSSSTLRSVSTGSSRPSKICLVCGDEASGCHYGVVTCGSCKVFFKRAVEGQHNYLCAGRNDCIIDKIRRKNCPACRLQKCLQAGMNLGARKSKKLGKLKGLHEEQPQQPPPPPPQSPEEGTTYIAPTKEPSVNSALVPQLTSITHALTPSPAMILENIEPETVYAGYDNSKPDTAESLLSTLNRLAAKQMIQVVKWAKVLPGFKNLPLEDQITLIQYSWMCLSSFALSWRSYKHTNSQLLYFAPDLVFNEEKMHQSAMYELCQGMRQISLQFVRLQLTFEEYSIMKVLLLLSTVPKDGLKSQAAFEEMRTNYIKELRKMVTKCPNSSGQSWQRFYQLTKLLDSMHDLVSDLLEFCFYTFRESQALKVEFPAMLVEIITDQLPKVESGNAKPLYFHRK
Procedure: Expression of NGAL in a Cellular Model of Rat Cardiomyocyte (H9C2 Cells) Stably Overexpressing with Rat MR
(§1) Quantitative NGAL mRNA expression was analyzed by quantitative PCR (Q-PCR, Light Cycler, Biorad) using forward 5′-[…]-3′ (SEQ ID NO:3) and reverse 5′-[…]-3′ (SEQ ID NO:4) primers on 25 μl of RT-PCR (using the qPCR Core kit for Sybr Green I from Eurogentec) prepared using 2 μg DNA-free total RNA extracted from rat H9-C2/MR cells treated with various concentrations of aldosterone or 10^−8M corticosterone or 10^−6 M MR antagonist RU 28318 or GR antagonist RU 486, alone or in combination.

[2] = target: T1, rat MR; assay: Expression of Serpina3 mRNA (Q-PCR) in rat cardiomyocyte H9C2 cells stably overexpressing rat MR; assay type: cell-based; settings: for serpina3 induction, time course: Aldosterone 10 nM
Procedure: Expression of Serpina3 in a Cellular Model of Rat Cardiomyocyte (H9C2 Cells) Stably Overexpressing with Rat MR
as §1, with “Serpina3” for “NGAL”, “NO:7)” for “NO:3)”, “NO:8)” for “NO:4)”, “28318,” for “28318 or GR antagonist RU 486,”

[3] = target: T2, MR (Mus musculus, UniProt Q8VII8); assay: NGAL expression in uninephrectomized mice with aldosterone infusion and 1% salt (aldo/salt model); assay type: in vivo; settings: 3 weeks
T2 construct: from tissue; host or cells: living mice (heart, plasma)
T2 sequence (Q8VII8 1-978): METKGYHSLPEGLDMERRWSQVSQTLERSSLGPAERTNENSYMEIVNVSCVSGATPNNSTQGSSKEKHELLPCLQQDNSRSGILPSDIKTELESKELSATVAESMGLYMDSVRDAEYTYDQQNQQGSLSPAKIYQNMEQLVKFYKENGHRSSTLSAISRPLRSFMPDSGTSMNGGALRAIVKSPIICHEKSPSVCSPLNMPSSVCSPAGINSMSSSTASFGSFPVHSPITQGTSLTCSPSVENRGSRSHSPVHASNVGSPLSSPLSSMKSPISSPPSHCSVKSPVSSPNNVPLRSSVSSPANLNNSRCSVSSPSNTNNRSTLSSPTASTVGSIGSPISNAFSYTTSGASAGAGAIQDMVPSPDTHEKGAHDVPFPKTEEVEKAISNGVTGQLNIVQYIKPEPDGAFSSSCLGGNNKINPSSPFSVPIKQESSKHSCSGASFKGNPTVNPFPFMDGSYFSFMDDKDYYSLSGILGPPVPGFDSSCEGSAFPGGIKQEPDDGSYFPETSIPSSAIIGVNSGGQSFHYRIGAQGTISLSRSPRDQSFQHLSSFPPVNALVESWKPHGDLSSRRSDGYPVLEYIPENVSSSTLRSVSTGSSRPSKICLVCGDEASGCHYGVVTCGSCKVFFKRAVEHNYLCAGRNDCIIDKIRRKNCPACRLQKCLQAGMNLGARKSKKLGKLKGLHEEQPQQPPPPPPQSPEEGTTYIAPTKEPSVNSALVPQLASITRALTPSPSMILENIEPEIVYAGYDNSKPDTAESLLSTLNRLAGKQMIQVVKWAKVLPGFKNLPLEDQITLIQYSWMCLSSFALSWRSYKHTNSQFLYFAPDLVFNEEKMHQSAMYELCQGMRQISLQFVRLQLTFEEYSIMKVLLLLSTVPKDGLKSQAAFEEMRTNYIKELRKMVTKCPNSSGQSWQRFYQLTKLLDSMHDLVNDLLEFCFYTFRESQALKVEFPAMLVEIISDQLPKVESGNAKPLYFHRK
Procedure: Quantitative NGAL mRNA expression was analyzed by quantitative PCR (Q-PCR, Light Cycler, Biorad) using forward 5′-[…]-3′ (SEQ ID NO:1) and Reverse 5′-[…]-3′ (SEQ ID NO:2) primers on 25 μl of RT-PCR (using the qPCR Core kit for Sybr Green I from Eurogentec) prepared using 2 μg DNA-free total RNA extracted from the heart of one, two and three mo-old MR transgenic mice and compared to matched littermates, as well as two mo-old GR transgenic mice (and respective control littermates). Protein expression of NGAL was analyzed in cardiac protein extracts from two mo-old MR mice using a specific NGAL antibody (AF1857, R&D Systems). […]
Quantitative NGAL mRNA expression was also analyzed by Q-PCR in the heart of mice with uninephrectomy and treated with aldosterone infusion (60 μg/kg/j, 0.25 μl/h ALZET minipumps) and 1% salt in the drinking water for 3 weeks (as compared to uninephrectomized-only control mice), and in thoracic aorta from 9 months-old mice with conditional overexpression of the human MR in the endothelium only obtained after appropriate breeding of the MR transgenic mice described above with an endothelial-specific transactivator mice (provided by L. E. Benjamine, Harvard, USA) (Sun et al., 2005) that allowed conditional expression of hMR in the endothelium only. […]

[4] = target: T2, MR; assay: Plasma NGAL (ELISA) in db/db mouse model of type II diabetes treated with MR antagonist; assay type: in vivo, mice

CCC[C@@H]1CC2=CC(=O)CC[C@]2(C)[C@H]2CC[C@@]3(C)[C@@H](CC[C@@]3(O)CCC(=O)[O-])[C@H]12.[K+] [RU 28318]
Effect on aldosterone-induced increase of Lipocalin2/NGAL expression ([1]; antagonist (10^−6 M) added to 10^−8M aldosterone): prevented | Effect on corticosterone-induced increase of Lipocalin2/NGAL expression ([1]; antagonist (10^−6 M) with 10^−8M corticosterone): prevented | Effect on corticosterone induction of SERPINA3 mRNA ([2]; H9C2/MR+ cells, MR antagonist with 10 nM corticosterone): prevented | Effect on aldosterone induction of SERPINA3 mRNA ([2]; H9C2/MR+ cells, in presence of MR antagonist with 1 nM aldosterone): suppressed

C[C@]12CCC(=O)C=C1CC[C@@H]1[C@@H]2[C@@H](O)C[C@]2(C=O)[C@@H](C(=O)CO)CC[C@@H]12 [aldosterone]
Lipocalin2/NGAL expression ([1]; 10^−8M aldosterone for 24 h): increased | Lipocalin2/NGAL expression, time-course ([1]; after 24 h): induced | Lipocalin2/NGAL expression, time-course ([1]; after 48 h): remained sustained | Lipocalin2/NGAL expression, dose-response ([1]; increasing concentrations of aldosterone): stimulated by increasing concentrations | expression of serpina3 (in words) ([2]; H9C2/MR cells, 1 nM aldosterone for 24 h): increased | Serpina3 expression (in words) ([2]; H9C2/MR cells, 10 nM aldosterone, 24 h exposure): highly induced | serpina3 induction, time course ([2]; H9C2/MR cells, after 10 hours): induced | serpina3 induction, time course ([2]; H9C2/MR cells, after 24 h): 15 × | Serpina3 induction, dose-response ([2]; H9C2/MR cells, aldosterone, starting with 1 nM): dose-dependent; also recorded: Concentration dependent induction | SERPINA3 mRNA induction ([2]; H9C2/MR+ cells, aldosterone 1 nM for 24 hrs): about 8 fold | Lipocalin2/NGAL expression in the heart ([3]; 60 μg/kg/j infusion, quantitative PCR): increased | plasma levels of lipocalin2/NGAL ([3]; ELISA): increased

C[C@]12CCC(=O)C=C1C=C[C@@H]1[C@@H]2CC[C@@]2(C)[C@H]1CC[C@@]2(O)CCC(=O)O [canrenoate]
Effect on plasma levels of lipocalin2/NGAL in control mice ([4]; control mice, 17 weeks treatment): no effect | Effect on increase in plasma levels of lipocalin2/NGAL in db/db mice ([4]; db/db mice, 17 weeks in vivo treatment, 100 mg/Kg/day in drinking water): prevented

C[C@]12C[C@H](O)[C@H]3[C@@H](CCC4=CC(=O)CC[C@@]43C)[C@@H]1CC[C@@H]2C(=O)CO [corticosterone]
Lipocalin2/NGAL expression ([1]; 10^−8M corticosterone): stimulated | SERPINA3 mRNA expression ([2]; H9C2/MR cells, 10 nM corticosterone, 24 h): increased
